This note sets out measurements from ChEMBL document CHEMBL1133249, “Combined tachykinin receptor antagonist: synthesis and stereochemical structure-activity relationships of novel morpholine analogues” (Bioorg Med Chem Lett, 2000).

Where only a bound is given, the exact number is not on record here.

One assay concerns the target Substance-P receptor (Cavia porcellus, UniProt P30547). As to the kind of experiment: The compound was evaluated in vitro for its ability to displace [3H]SP from Tachykinin receptor 1 of male guinea pig lung membrane. It counts as tissue-based.
In another assay the target is T1, Neuromedin-K receptor (Cavia porcellus, UniProt P30098).
T1 sequence (P30098 whole entry): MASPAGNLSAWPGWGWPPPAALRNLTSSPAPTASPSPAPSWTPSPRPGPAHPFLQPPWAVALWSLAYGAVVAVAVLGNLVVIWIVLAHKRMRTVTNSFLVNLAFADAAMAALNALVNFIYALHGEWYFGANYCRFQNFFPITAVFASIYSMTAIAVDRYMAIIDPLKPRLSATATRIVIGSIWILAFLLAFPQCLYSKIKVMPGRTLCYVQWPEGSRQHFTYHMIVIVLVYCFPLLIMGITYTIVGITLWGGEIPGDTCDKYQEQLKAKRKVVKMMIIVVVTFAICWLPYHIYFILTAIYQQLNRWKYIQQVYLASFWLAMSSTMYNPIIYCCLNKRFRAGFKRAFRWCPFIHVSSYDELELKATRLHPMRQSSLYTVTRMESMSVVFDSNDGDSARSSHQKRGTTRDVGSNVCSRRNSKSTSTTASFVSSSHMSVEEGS
As to the kind of experiment: The compound was evaluated in vitro for its ability to displace [3H]SP from Tachykinin receptor 3 of male guinea pig lung membrane. It counts as tissue-based.

Another assay addresses T2, Substance-K receptor (Cavia porcellus, UniProt Q64077).
T2 sequence (Q64077 whole entry): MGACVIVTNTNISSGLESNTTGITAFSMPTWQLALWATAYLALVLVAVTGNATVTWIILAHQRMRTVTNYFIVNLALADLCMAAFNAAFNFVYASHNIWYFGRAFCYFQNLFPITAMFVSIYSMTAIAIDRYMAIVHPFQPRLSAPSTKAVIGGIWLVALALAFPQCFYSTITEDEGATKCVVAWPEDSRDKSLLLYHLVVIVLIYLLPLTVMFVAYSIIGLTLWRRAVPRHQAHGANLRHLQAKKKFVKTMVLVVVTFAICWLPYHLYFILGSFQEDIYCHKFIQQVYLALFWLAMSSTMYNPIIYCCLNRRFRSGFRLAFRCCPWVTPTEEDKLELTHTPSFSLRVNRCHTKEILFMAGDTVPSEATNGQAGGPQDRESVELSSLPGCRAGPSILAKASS
As to the kind of experiment: The compound was evaluated in vitro for its ability to displace [3H]SP from Tachykinin receptor 2 of male guinea pig lung membrane. It counts as tissue-based.

Assay [1] concerns Cavia porcellus. Description: Inhibitory effect of compound was evaluated after intravenous administration on SP-induced plasma protein extravasation, mediated by NK1 receptors in guinea pig airways. The class given is functional. To be noted: read-out: ID50 (the source's name).
The subject of assay [2] is Cavia porcellus. As to the kind of experiment: Inhibitory effect was evaluated after intravenous administration on bronchoconstriction induced by NKA receptor in guinea pigs. The class given is functional. To be noted: read-out: ID50 (the source's name).
Assay [3] deals with Cavia porcellus. As to the kind of experiment: Inhibitory effect was evaluated after intravenous administration on bronchoconstriction induced by NKB receptor in guinea pigs. The class given is functional. The settings on record: read-out: ID50 (the source's name).

Sequence of Substance-P receptor (P30547 whole entry): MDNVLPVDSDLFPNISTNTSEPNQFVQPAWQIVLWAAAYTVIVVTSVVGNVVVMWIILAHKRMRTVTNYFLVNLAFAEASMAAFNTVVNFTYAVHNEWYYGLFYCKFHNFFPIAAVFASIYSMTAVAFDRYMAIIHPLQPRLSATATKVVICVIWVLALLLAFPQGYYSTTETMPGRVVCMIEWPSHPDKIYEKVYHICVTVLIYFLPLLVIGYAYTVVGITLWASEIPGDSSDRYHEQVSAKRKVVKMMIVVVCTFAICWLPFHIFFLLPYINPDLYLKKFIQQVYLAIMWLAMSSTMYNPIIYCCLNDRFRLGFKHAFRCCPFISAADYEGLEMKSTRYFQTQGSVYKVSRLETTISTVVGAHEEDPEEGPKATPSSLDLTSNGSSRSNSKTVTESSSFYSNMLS

As to `COc1cc(C(=O)N2CCO[C@@](CCN3CCC4(CC3)c3ccccc3C[S@+]4[O-])(c3ccc(Cl)c(Cl)c3)C2)cc(OC)c1OC`, the IC50 is more than 1 µM on Substance-P receptor, 0.52 µM at Neuromedin-K receptor and more than 1 µM at Substance-K receptor.
As to `COc1cc(C(=O)N2CCO[C@](CCN3CCC4(CC3)c3ccccc3C[S@@+]4[O-])(c3ccc(Cl)c(Cl)c3)C2)cc(OC)c1OC`, the IC50 stood at 0.22 µM at Substance-P receptor, 0.011 µM at Neuromedin-K receptor and 0.059 µM at Substance-K receptor.
Taken in the same sequence, the figures for `COc1cc(C(=O)N2CCO[C@](CCN3CCC4(CC3)c3ccccc3C[S@+]4[O-])(c3ccc(Cl)c(Cl)c3)C2)cc(OC)c1OC` were 0.021 µM, 0.00072 µM and 0.0031 µM.
Taken in the same sequence, the figures for `COc1cc(C(=O)N2CCO[C@](CCN3CCC4(CC3)c3ccccc3C[C@H]4O)(c3ccc(Cl)c(Cl)c3)C2)cc(OC)c1OC` were 0.27 µM, 0.017 µM and 0.045 µM.
Taken in the same sequence, the figures for `COc1cc(C(=O)N2CCO[C@](CCN3CCC4(CC3)c3ccccc3C[C@@H]4O)(c3ccc(Cl)c(Cl)c3)C2)cc(OC)c1OC` were 0.04 µM, 0.0027 µM and 0.0068 µM.
In the case of `COc1cc(C(=O)N2CCO[C@@](CCN3CCC4(CC3)c3ccccc3C[C@H]4O)(c3ccc(Cl)c(Cl)c3)C2)cc(OC)c1OC` (racemic), the IC50 at Substance-P receptor, at Neuromedin-K receptor and on Substance-K receptor was more than 1 µM throughout.
Regarding `COc1cc(C(=O)N2CCOC(CCN3CCC4(CC3)c3ccccc3C[S+]4[O-])(c3ccc(Cl)c(Cl)c3)C2)cc(OC)c1OC.Cl` (configuration not stated), the ED50 is 0.33 mg/kg in the assay on Cavia porcellus [1], 0.04 mg/kg in the assay on Cavia porcellus [2] and 0.063 mg/kg in the assay on Cavia porcellus [3].
For `COc1cc(C(=O)N2CCO[C@@](CCN3CCC4(CC3)c3ccccc3C[C@@H]4O)(c3ccc(Cl)c(Cl)c3)C2)cc(OC)c1OC`, the IC50 on Substance-P receptor, at Neuromedin-K receptor and on Substance-K receptor was more than 1 µM in each case.
As for `COc1cc(C(=O)N2CCO[C@@](CCN3CCC4(CC3)c3ccccc3C[S@@+]4[O-])(c3ccc(Cl)c(Cl)c3)C2)cc(OC)c1OC` (racemic), the IC50 is more than 1 µM on Substance-P receptor, 0.66 µM on Neuromedin-K receptor and more than 1 µM at Substance-K receptor.
